Reference: PubChem BioAssay AID1996
Converted amounts (≈) assume the structure as drawn.

Settings: buffer; pH 7.4; 200.0 µM

| SMILES | solubility kinetic [µg/mL] |
| --- | --- |
| Cc1ccc2c(C)c(C(=O)NCCN3CCOC3=O)oc2c1C | > 47.5 |
| O=C(Nc1ccccc1)Nc1cccc(-c2cn3cccnc3n2)c1 | 1 (≈ 3.04 µM) |
| CC(c1ccccc1)n1c(CCCO)nc2ccccc21 (stereo unspecified) | > 42.1 |
| COc1ccc(NC(=O)CC2Oc3ccccc3NC2=O)c(OC)c1 (stereo unspecified) | 4 (≈ 11.7 µM) |
| CC1CCc2c(C(=O)Nc3ccccn3)csc2C1 (stereo unspecified) | 11.6 (≈ 42.6 µM) |
| CN(C)c1cccc(N(C)C)c1CNC(=O)C(C)(C)C | 39.7 (≈ 143 µM) |
| Cc1sc(NC(=O)C2=COCCO2)c(C(N)=O)c1C | > 42.3 |
| O=C(c1ccncc1)N1CCN(S(=O)(=O)c2ccc(F)cc2)CC1 | > 52.4 |
| N/C(=N\c1nc2ccccc2o1)NC(=O)/C=C/c1ccccc1 | < 0.2 |
| FC(F)(F)c1nc2cc3nc4ccccc4[nH]c3cc2n1 | 9.2 (≈ 31.9 µM) |
| CN1CC(C(=O)c2ccc(Cl)cc2)C(c2ccc(N(C)C)cc2)C1 (stereo unspecified) | 47.1 (≈ 137 µM) |
| O=C(Cn1cc([N+](=O)[O-])cn1)N1CCN(c2ccccc2)CC1 | > 47.3 |
| CN(C)c1cc(Nc2ccc(O)cc2)c([N+](=O)[O-])c2nonc12 | 0.7 (≈ 2.22 µM) |
| C=CCN1C(=O)C(Cc2ccccc2Cl)SC1=Nc1ccc(C(=O)O)cc1 (stereo unspecified) | > 60.1 |
| Cc1ccc(N=C2NC(=O)C(CO)(CO)S2)cc1 | 27.1 (≈ 102 µM) |
| C=CCn1c(O)c(C=NCCCn2ccnc2)c(=O)[nH]c1=O | > 45.5 |
| COCCNC(=O)c1ccccc1NC(=O)Nc1ccccc1 | > 47 |
| Cl.N=C(c1cccc([N+](=O)[O-])c1)N1CCCCCC1 | > 42.6 |
| CCN1C(=O)Nc2cccc3cccc1c23 | 4.9 (≈ 23.1 µM) |
| CCc1ccccc1NC(=O)CN(C)C(=O)COC(=O)c1ccco1 | > 51.7 |
| C[C@H](Nc1ccc(C(F)(F)F)cc1[N+](=O)[O-])C(=O)O.[Cl-] | > 47 |
| CCC1Cc2c(nc(N)c3c(N)nc(N4CCOCC4)c(C#N)c23)O1 (stereo unspecified) | 8.9 (≈ 26.1 µM) |
| COCCNCC(=O)N1c2ccccc2Sc2ccccc21 | 38.1 (≈ 121 µM) |
| NC(=O)COC(=O)c1ccc2c(c1)C(=O)N(Cc1ccco1)C2=O | > 49.2 |
| Cc1cc(C)c(Nc2ncccc2C(=O)O)c(C)c1 | > 38.4 |

| SMILES | solubility kinetic [µg/mL] |
| --- | --- |
| O=C(Nc1cc(Cl)ccc1N1CCOCC1)c1ccco1 | 3.5 (≈ 11.4 µM) |
| Cc1cc(NC(=O)CN2C(=O)NC(C)(c3ccc(Cl)cc3Cl)C2=O)no1 (stereo unspecified) | 7.4 (≈ 18.6 µM) |
| CC(c1ccccc1)N1CC(C(=O)O)CC1=O (stereo unspecified) | > 35 |
| O=Cc1c(NCc2ccc(F)cc2)c2ccccc2[nH]c1=O | 2.6 (≈ 8.77 µM) |
| Cc1ccc(C)c(C(=O)c2ccccc2NC(=O)c2ccccn2)c1 | < 0.4 |
| CC(C)(/C=N/O)/[N+]([O-])=C/c1ccccc1 | > 30.9 |
| O=[N+]([O-])c1ccc(Sc2ncc3ccccn23)nc1 | 20.6 (≈ 75.7 µM) |
| OCc1c[nH]c2ccccc12 | 7 (≈ 47.6 µM) |
| CCCCN=CC1=C(O)CC(c2ccccc2)CC1=O (stereo unspecified) | 34.9 (≈ 129 µM) |
| CC(C)NC(=O)N(Cc1ccc(Cl)cc1)Cc1cccs1 | 37 (≈ 115 µM) |
| Cc1cc(=O)oc2cc(OCC(=O)NC3CCCCC3)c(Cl)cc12 | 4.6 (≈ 13.1 µM) |
| Cl.O=C(COc1ccc(F)cc1)NCCCn1ccnc1 | 39.1 |
| O=C(Nc1cccc2cccnc12)c1cc(F)c(F)cc1Cl | < 0.3 |
| CCCN1C(=O)C(O)(c2c(C)[nH]c3ccccc23)c2ccccc21 (stereo unspecified) | 26.3 (≈ 82.1 µM) |
| CCC(NC(=O)C1CCCC1)c1ccccc1 (stereo unspecified) | > 34.7 |
| Cc1ccc2c(c1)sc1nc(=O)ccn12 | > 32.4 |
| Cc1ccccc1NC1=NC2(CCCC2)N=C(N)N1 | 28.3 (≈ 110 µM) |
| OC1(C#CCCN2CCCCC2)c2ccccc2-c2ccccc21 | > 47.6 |
| Cc1ccc(/C=C/S(=O)(=O)NCCC(=O)NCc2ccccc2F)cc1 | 9 (≈ 23.9 µM) |
| CN(CC(=O)NCCc1ccc(S(N)(=O)=O)cc1)CC(=O)Nc1ccc(Cl)cc1 | > 65.8 |
| CN1CCN(c2ccc(NC(=O)c3ccco3)cc2Cl)CC1 | 45.3 (≈ 142 µM) |
| CCCCn1c(=O)cc(C)n(-c2ccccc2)c1=O | 22.8 (≈ 88.3 µM) |
| Cc1ccc(OCCn2cc(C=O)c3ccccc32)cc1 | 5.3 (≈ 19 µM) |
| O=C(Nc1cccc2ccccc12)c1cccc([N+](=O)[O-])c1 | 1.4 (≈ 4.79 µM) |
| CC(C)N(C(=O)Cc1ccccc1[N+](=O)[O-])C(C)C | > 39.6 |

| SMILES | solubility kinetic [µg/mL] |
| --- | --- |
| O=C(Nc1cccc2ccccc12)NC1CCCCC1 | < 0.3 |
| O=C(c1ccncc1)c1ccc(NC(=O)c2cccs2)cc1 | 45.9 (≈ 149 µM) |
| Cc1cccc(Nc2nc(NCc3ccco3)nc(N)c2[N+](=O)[O-])c1 | < 0.1 |
| O=c1onc(-c2cccnc2)n1-c1ccccc1F | 33 (≈ 128 µM) |
| N#C/C(=C/Nc1ccccc1C(=O)O)C(N)=O | > 34.7 |
| Cc1nc(C(F)(F)F)ccc1C(=O)Nc1ccccc1N1CCOCC1 | 50.8 (≈ 139 µM) |
| COc1ccc(CNC(=S)NC2CCCCC2)cc1 | 38.4 (≈ 138 µM) |
| CN1C2CCC1CC(NS(=O)(=O)c1cccc(C(F)(F)F)c1)C2 (stereo unspecified) | 48.3 (≈ 139 µM) |
| COc1ccccc1CNC(=O)C(NC(=O)c1ccccc1)C(C)C (stereo unspecified) | 9.9 (≈ 29.1 µM) |
| CSCCC(NC(=O)c1cccc(C)c1)C(=O)O (stereo unspecified) | > 40.1 |
| COc1ccc(CNc2ncnc3c2[nH]c2ccccc23)cc1 | 0.2 (≈ 0.657 µM) |
| CC(Oc1ccc(Cl)cc1)C(=O)NCC1CCCO1 (stereo unspecified) | 41.5 (≈ 146 µM) |
| Cc1ccc(/C=C2/SC(=S)N(CCC(=O)N3CCOCC3)C2=O)cc1 | < 0.4 |
| O=C(c1ccc(Br)cc1)C12CN3CN(CN(C3)C1)C2 | > 48.3 |
| COC(=O)CC1C(=O)NCCN1C(=O)Nc1cccc(Cl)c1 (stereo unspecified) | 48.8 (≈ 150 µM) |
| COc1ccc(-c2nc3n(c(=O)c2C#N)CCS3)c(OC)c1 | > 47.3 |
| CCOC(=O)c1cnc(-c2ccccc2)nc1C(F)(F)F | < 0.3 |
| CCc1ccccc1NC(=O)c1sc2nc(C)cc(C)c2c1N | 0.5 (≈ 1.54 µM) |
| CC1(C)OCC(COC(=O)Nc2cccnc2)([N+](=O)[O-])CO1 | 39.8 (≈ 128 µM) |
| Cn1cccc1C(=O)OCC(=O)NCCCc1ccccc1 | > 45.1 |
| O=[N+]([O-])c1ccc(Cc2ccccn2)c([N+](=O)[O-])c1 | 33.6 (≈ 130 µM) |
| CC(C)c1nc(SCC(=O)NC2CCCC2)c2ccccc2n1 | 6.1 (≈ 18.5 µM) |
| COCCCNC(=O)c1ccc(C2SCC(=O)N2Cc2ccco2)cc1 (stereo unspecified) | 52.1 (≈ 139 µM) |
| S=C(NCc1cccnc1)NCc1cccnc1 | 37.4 (≈ 145 µM) |
| O=C(CCCc1c[nH]c2ccccc12)NCc1ccccc1F | 34.5 (≈ 111 µM) |

| SMILES | solubility kinetic [µg/mL] |
| --- | --- |
| CC1(C)Cc2cccc(C(=O)Nc3ccncc3)c2O1 | 34.8 (≈ 130 µM) |
| O=S(=O)(c1cccc2cccnc12)N1CCCc2ccccc21 | 1.3 (≈ 4.01 µM) |
| COc1ccc(CNC(=O)CSCc2c(F)cccc2Cl)cc1 | 5.5 (≈ 15.5 µM) |
| COc1cc([N+](=O)[O-])cc2sc(NC(=O)C3CC3)nc12 | 0.6 (≈ 2.05 µM) |
| Cc1cc(=O)[nH]c(Nc2cccc(Cl)c2C)n1 | > 37.5 |
| O=C(NC1CCC(O)CC1)c1ccc(-c2ccc(Cl)cc2)o1 (stereo unspecified) | 18.7 (≈ 58.5 µM) |
| Nc1nc(Cl)cc(Oc2ccccc2F)n1 | 15.6 (≈ 65.1 µM) |
| CSC(=Nc1ccccc1)C(C#N)c1nc2ccccc2[nH]1 (stereo unspecified) | 0.3 (≈ 0.979 µM) |
| CCc1nc2ccccc2c(C(=O)OCC(=O)NC2CCCC2)c1C | 48.5 (≈ 142 µM) |
| CCOC(=O)C1CCCN(CCSc2ccc(C)cc2)C1.Cl (stereo unspecified) | 41.3 |
| O=C(COC(=O)c1ccc(Br)o1)Nc1cccc(S(=O)(=O)N2CCCCC2)c1 | 9.3 (≈ 19.7 µM) |
| COc1cc(NC(=O)CC(C)n2ccnc2)cc(OC)c1 (stereo unspecified) | > 43.4 |
| CCC1CCCCN1C(=O)COc1ccc2c(c1)OCO2 (stereo unspecified) | > 43.7 |
| O=C(Cc1ccccc1)N1CCC(c2ccccc2)C1 (stereo unspecified) | 38.6 (≈ 145 µM) |
| COc1ccc(/C=C2\N=C(SC)N(c3ccccc3OC)C2=O)cc1 | 1.4 (≈ 3.95 µM) |
| COC(=O)CCCSc1nccn1-c1ccccc1 | > 41.5 |
| CCCC(=O)Nc1ccc(OCC(O)CNC(C)C)c(C(C)=O)c1.Cl (stereo unspecified) | > 55.9 |
| COc1cccc(-c2noc(CCC(=O)NCCc3ccccc3)n2)c1 | 44.3 (≈ 126 µM) |
| O=C1NC(=O)N(c2ccccc2)C1=O | > 28.5 |
| C=CCNC(=O)N1CCCC(C(=O)c2cccc(OC(C)C)c2)C1 (stereo unspecified) | > 49.6 |
| CC(CCc1ccccc1)NC(C)C(O)c1ccc(O)cc1.Cl (stereo unspecified) | > 50.4 |
| N#C/C(=C\c1ccc[nH]1)C(=O)Nc1ccccc1[N+](=O)[O-] | 0.4 (≈ 1.42 µM) |
| COc1ccccc1-c1noc(CCCC(=O)N2CCOCC2)n1 | > 49.7 |
| Cn1cnc2cc(NCc3ccccc3O)ccc21 | 36.9 (≈ 146 µM) |
| O=C(Nc1c[nH]c(=O)[nH]c1=O)c1ccccc1Br | > 46.5 |

| SMILES | solubility kinetic [µg/mL] |
| --- | --- |
| O=C1CC(c2ccco2)Sc2ccccc2N1 (stereo unspecified) | > 36.8 |
| COc1ccc(-c2c(C(=O)O)c(C(=O)O)c3n2CCC3)cc1 | > 45.2 |
| O=C(CCc1cccc(Cl)c1)N1CCCC(Nc2ccccc2)C1 (stereo unspecified) | 27.4 (≈ 79.9 µM) |
| CCCCC(=O)N=c1sc2cc([N+](=O)[O-])ccc2n1C | < 0.2 |
| CC(C)(C)OC(=O)N1CCC(CNC(=O)c2ccc(F)cc2)CC1 | > 50.5 |
| CNc1snc(C)c1C(=O)OCC(=O)NCc1ccccc1OC | 3.8 (≈ 10.9 µM) |
| CCOc1ccc2cc(S(=O)(=O)N3CCCCC3)ccc2c1 | < 0.7 |
| N#CC(c1cccnc1)N1CCOCC1 (stereo unspecified) | > 30.5 |
| NC(=O)COC(=O)c1ccccc1OCc1ccc(Cl)cc1 | 7.2 (≈ 22.5 µM) |
| CCOC(=O)N1CCN(CC(c2ccccc2)c2ccccc2)CC1 | 25.6 (≈ 75.6 µM) |
| Cc1cc(C)c2c3c(oc2n1)C(=O)N(c1cccc(Cl)c1)CC(=O)N3 | 0.7 (≈ 1.97 µM) |
| CC(C)c1ccc(NC(=S)Nc2cccc3ccccc23)cc1 | 1.8 (≈ 5.62 µM) |
| Cc1c(Cl)cccc1NC(=O)CCN1CCOCC1 | > 42.4 |
| CSCC(=O)NCC1(N(C)Cc2ccccc2)Cc2ccccc2C1 | > 53.2 |
| S=C1NCN(C2CCCCC2)CN1CCc1ccccc1 | 16.1 (≈ 53.1 µM) |
| O=C(CN1C(=O)COc2ccccc21)NCCN1CCOCC1 | > 47.9 |
| COc1cc(NC(=O)Nc2cccc(Cl)c2)c(C(=O)O)cc1OC | > 52.6 |
| CC(C)N1C(=O)CCC1C(=O)N1CCN(c2ccc(F)cc2)CC1 (stereo unspecified) | > 50 |
| COc1cc(-c2nc3ccccn3c2N)ccc1O | > 38.3 |
| CC(=O)N(Cc1cc(=O)[nH]c2ccccc12)c1ccccc1C | 43.6 (≈ 142 µM) |
| Cc1[nH]c2ccccc2c1/C=C/C(=O)c1ccncc1 | 0.7 (≈ 2.67 µM) |
